Measurements: US20230293348A1, “DYES FOR USE IN A METHOD OF PHOTOPORATION OF THE INNER LIMITING MEMBRANE” (UNIVERSITEIT GENT, priority 2020, published 2023)
Entries after “also recorded” stand apart in the source; their conditions may differ.

Assays:
[1] = system: ILM of bovine retinal explants; assay: ILM perforation by ICG photoporation, cryosections stained for Collagen IV; conditions: ICG 1 mg/ml, 0,4 J/cm^2 800 nm 2 ps laser pulses
Source text: FIG. 2: Images of cryosections of conventional bovine explants stained for nuclei in the retina by Hoechst staining (indicated in grey - low contrast) and showing the ILM stained by antibodies against Collagen IV (indicated in white). […] The study aimed to perforate the ILM by photoporation. Thereto, a vital dye, in particular Indocyanine Green (ICG), was delivered to the ILM after which the retina was illuminated with a powerful but extremely short pulse of 800 nm laser light. Without being bound to theory, the absorbance of light by the ICG can result in the evaporation of the surrounding water, creating vapour nanobubbles (VNBs) which upon collapse can cause damage to neighbouring tissue such as in particular the ILM. To generate ILM perforation, an ICG solution (1 mg/ml) was applied on the ILM surface of bovine retinal explants followed by laser scanning of the tissue with 2 picosecond pulses.

[2] = system: retinal surface of bovine retinal explants (Müller cell endfeet, nerve fibers); assay: Retinal surface imaging with Mitotracker Deep Red and Hoechst after ICG photoporation; conditions: ICG 0,1 mg/ml, 0,4 J/cm^2 laser
Procedure: FIG. 4: Images of the retinal surface after staining with Mitotracker and Hoechst. […] Scale bar = 25 µm.
Furthermore, a method was tested to look at the retinal surface in more detail, allowing to visualize several types of structures such as nerve fibers, blood vessels, and Müller cells (cell type located right underneath the ILM). To this end, intact retinal explants were stained with a dye mixture of Mitotracker Deep Red and Hoechst, which allows to identify these structures. […] Indeed, in untreated explants, the retinal surface was neatly organized: a mosaic of Müller cell endfeet intertwined with bundles of nerve fibers.

[3] = system: ILM of bovine explants; assay: Retinal entry of 100 nm polystyrene nanoparticles (Fluospheres) after ICG-mediated ILM perforation; conditions: ICG 1 mg/ml, 0,4 J/cm^2 laser
Source text: FIG. 5: Images of cryosections of bovine explants stained for nuclei in the retina by Hoechst (indicated in grey - low contrast). […] Scale = 25 µm
It was further tested whether ICG-mediated ILM ablation allowed to deliver therapeutics to the retina.

[4] = system: human ILM; assay: ILM ablation by ICG photoporation in human explants, cryosections stained for Collagen IV; conditions: 1 mg/ml ICG, 0,4 J/cm2 laser fluence
Procedure: FIG. 6: Images of cryosections of human explants stained for nuclei in the retina by Hoechst staining (indicated in grey - low contrast) and showing the ILM stained by antibodies against Collagen IV (indicated in white); scale = 25 µm. Top row: untreated; bottom row: treatment with 1 mg/ml ICG and 0,4 J/cm^2 laser fluence. Absence of the ILM is indicated by a dashed line.
Therefore, the approach was tested on human samples. Since the thickness of the ILM is also age dependent, we investigated human ILM ablation in younger and older patients. […] As illustrated in the top row, the ILM in untreated explants becomes gradually thicker with increasing age, which is an observation in accordance with literature (FIG. 6, untreated). Treated samples (bottom row) were treated with 1 mg/ml ICG and 0,4 J/cm2 laser fluence. Absence of the ILM is indicated by a dashed line.

[5] = system: human ILM; assay: Inherent affinity of free ICG for the ILM; assay type: binding; conditions: preliminary data

## CC1(C)C(/C=C/C=C/C=C/C=C2\N(CCCCS(=O)(=O)O)c3ccc4ccccc4c3C2(C)C)=[N+](CCCCS(=O)(=O)[O-])c2ccc3ccccc3c21 [ICG, Indocyanine Green]
[1]
  ILM integrity on cryosections: ILM ablation; also recorded: most of the ILM was absent with only small parts remaining
[2]
  retinal surface organization (Mitotracker and Hoechst staining): greatly disturbed; also recorded: way more disorganized
[3]
  retinal entry of 100 nm polystyrene nanoparticles: high retinal uptake; also recorded: massive entry of the nanoparticles into the retina
[4]; human explant patient one
  ILM integrity on cryosections: fragmented ILM
[4]; human explant patient three
  ILM integrity on cryosections: completely absent
[4]; human explant patient two
  ILM integrity on cryosections: completely absent
[5]
  inherent affinity for the human ILM versus the bovine ILM: remarkably higher than for the bovine ILM
